compound: Cc1cc([C@@H](C)Nc2ccccc2C(=O)O)c2nc(N3CCOCC3)cc(=O)n2c1 [AZD6482] + CCNC(=O)c1noc(-c2cc(C(C)C)c(O)cc2O)c1-c1ccc(CN2CCOCC2)cc1 [Luminespib] (partner 0.01 µM); test: relative viability (nuclei count vs DMSO), 5 days (fraction); higher = more cells survive; conditions: first compound 0.08 µM
How it was run: (§1)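 One day after seeding in 1536-well plates, lung cancer cell lines were dosed by pin tool. Dosing was either single-drug or a fixed anchor-drug dose plus five library-drug doses (not always all listed) in √10 steps. After 5 days, nuclei were stained in one fix-and-stain step and counted on 4× images, and relative viability is the nuclei count of treated wells over that of vehicle wells, given as the median of duplicate plates.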

Cell Line	relative viability
NCI-H23	0.235
NCI-H647	0.167
CAL-12T	0.476
NCI-H1651	0.779
EPLC-272H	0.347
NCI-H1792	0.373
NCI-H1355	0.53
NCI-H3122	0.094
NCI-H1437	1.16
NCI-H1755	0.24
NCI-H2023	0.603
HCC-15	0.425
NCI-H1793	0.151
PC-14	0.156
EKVX	0.778
LC-2-ad	0.976
NCI-H1944	0.775
NCI-H1975	0.171

same assay, conditions: first compound 0.253 µM

Cell Line	relative viability
NCI-H322M	0.472
LCLC-97TM1	0.803
NCI-H2009	1.11
A-427	0.79
NCI-H441	0.375
NCI-H661	0.945
NCI-H1734	0.167
NCI-H460	0.0327
NCI-H2347	0.231
SK-LU-1	0.189
NCI-H1395	0.601
201T	0.982
NCI-H1915	0.698
HCC-827	0.478
LXF-289	0.655
NCI-H647	0.121
CAL-12T	0.204

Cell Line	relative viability
NCI-H1651	0.805
EPLC-272H	0.164
NCI-H2228	0.119
NCI-H1792	0.392
NCI-H1355	0.556
NCI-H3122	0.0817
NCI-H1437	1.2
NCI-H1755	0.488
NCI-H2023	0.574
HCC-15	0.229
NCI-H1793	0.164
PC-14	0.16
EKVX	0.748
LC-2-ad	0.954
NCI-H1944	0.621
NCI-H1975	0.272

same assay, conditions: first compound 0.8 µM

Cell Line	relative viability
NCI-H322M	0.783
LCLC-97TM1	0.66
NCI-H2009	1.08
A-427	0.986
NCI-H441	0.3
NCI-H661	0.968
NCI-H1734	0.164
NCI-H460	0.0426
NCI-H2347	0.583
SK-LU-1	0.203
NCI-H1395	0.514
201T	1.01
NCI-H1915	0.824
HCC-827	0.293
LXF-289	0.724
NCI-H23	0.249
NCI-H647	0.147

Cell Line	relative viability
CAL-12T	0.338
NCI-H1651	0.773
EPLC-272H	0.21
NCI-H2228	0.118
NCI-H1792	0.458
NCI-H1355	0.702
NCI-H3122	0.108
NCI-H1437	1.14
NCI-H1755	0.411
NCI-H2023	0.795
HCC-15	0.275
NCI-H1793	0.165
PC-14	0.145
EKVX	0.74
LC-2-ad	1.28
NCI-H1944	0.858
NCI-H1975	0.17

same assay, conditions: first compound 2.53 µM

Cell Line	relative viability
NCI-H322M	0.465
LCLC-97TM1	0.327
NCI-H2009	0.771
NCI-H661	0.635
NCI-H1734	0.163
NCI-H460	0.0315
NCI-H2347	0.27
SK-LU-1	0.145
NCI-H1395	0.376
201T	0.847
NCI-H1915	0.696
HCC-827	0.27
LXF-289	0.409
NCI-H23	0.207
NCI-H647	0.193
CAL-12T	0.171

Cell Line	relative viability
NCI-H1651	0.812
EPLC-272H	0.179
NCI-H2228	0.115
NCI-H1792	0.19
NCI-H1355	0.422
NCI-H3122	0.0814
NCI-H1437	0.969
NCI-H1755	0.322
NCI-H2023	0.518
HCC-15	0.239
NCI-H1793	0.134
EKVX	0.625
LC-2-ad	0.914
NCI-H1944	0.546
NCI-H1975	0.162

same assay, conditions: first compound 8 µM

Cell Line	relative viability
NCI-H322M	0.496
LCLC-97TM1	0.282
NCI-H2009	0.963
A-427	0.677
NCI-H441	0.262
NCI-H661	0.918
NCI-H1734	0.205
NCI-H460	0.0378
NCI-H2347	0.281
SK-LU-1	0.168
NCI-H1395	0.482
201T	1.02
NCI-H1915	0.778
HCC-827	0.196
LXF-289	0.379
NCI-H23	0.201
NCI-H647	0.146

Cell Line	relative viability
CAL-12T	0.325
NCI-H1651	0.753
EPLC-272H	0.256
NCI-H2228	0.169
NCI-H1792	0.353
NCI-H1355	0.52
NCI-H3122	0.0719
NCI-H1437	1.15
NCI-H1755	0.218
NCI-H2023	0.324
HCC-15	0.43
NCI-H1793	0.167
PC-14	0.142
EKVX	0.557
LC-2-ad	1.12
NCI-H1944	0.589
NCI-H1975	0.224

compound: Cc1cc([C@@H](C)Nc2ccccc2C(=O)O)c2nc(N3CCOCC3)cc(=O)n2c1 [AZD6482] + C[C@]1(O)C[C@@H](c2nc(-c3ccc4ccc(-c5ccccc5)nc4c3)c3c(N)nccn32)C1 [Linsitinib] (partner 1 µM); test: as above; conditions: first compound 0.08 µM
How it was run: as §1

Cell Line	relative viability
NCI-H322M	0.718
LCLC-97TM1	0.189
NCI-H2009	0.911
A-427	1.02
NCI-H441	0.459
NCI-H661	0.446
NCI-H1734	0.666
NCI-H460	0.717
NCI-H1395	0.879
201T	1.03
NCI-H1915	0.982
HCC-827	0.939
LXF-289	0.993
NCI-H23	0.532
NCI-H647	0.877
CAL-12T	0.711

Cell Line	relative viability
NCI-H1651	0.674
EPLC-272H	0.999
NCI-H2228	0.48
NCI-H1792	0.313
NCI-H1355	0.472
NCI-H3122	0.828
NCI-H1437	0.943
NCI-H1755	0.87
NCI-H2023	0.373
HCC-15	0.803
NCI-H1793	0.325
PC-14	0.93
EKVX	0.716
LC-2-ad	0.61
NCI-H1944	0.929
NCI-H1975	0.748

same assay, conditions: first compound 0.253 µM

Cell Line	relative viability
NCI-H322M	0.601
LCLC-97TM1	0.158
NCI-H2009	1.18
A-427	1.1
NCI-H441	0.499
NCI-H661	0.422
NCI-H1734	0.589
NCI-H460	0.703
NCI-H2347	0.943
SK-LU-1	0.905
NCI-H1395	0.639
201T	0.969
NCI-H1915	1.1
HCC-827	0.944
LXF-289	1
NCI-H23	0.477

Cell Line	relative viability
CAL-12T	0.604
NCI-H1651	0.663
NCI-H2228	0.38
NCI-H1792	0.41
NCI-H1355	0.55
NCI-H3122	0.993
NCI-H1437	1.08
NCI-H1755	0.864
NCI-H2023	0.337
HCC-15	0.894
NCI-H1793	0.503
PC-14	0.966
EKVX	0.6
LC-2-ad	0.48
NCI-H1944	0.834
NCI-H1975	0.938

same assay, conditions: first compound 0.8 µM

Cell Line	relative viability
NCI-H322M	0.707
LCLC-97TM1	0.168
NCI-H2009	1.16
A-427	1.17
NCI-H441	0.554
NCI-H661	0.398
NCI-H1734	0.701
NCI-H460	0.783
NCI-H2347	0.949
SK-LU-1	1.1
NCI-H1395	0.661
201T	1.01
NCI-H1915	1.09
HCC-827	0.926
LXF-289	0.971
NCI-H23	0.533
NCI-H647	0.739

Cell Line	relative viability
CAL-12T	0.632
NCI-H1651	0.733
EPLC-272H	0.898
NCI-H2228	0.38
NCI-H1792	0.501
NCI-H1355	0.576
NCI-H3122	1.02
NCI-H1437	0.998
NCI-H1755	0.75
NCI-H2023	0.322
HCC-15	0.858
NCI-H1793	0.615
PC-14	1.02
EKVX	0.646
LC-2-ad	0.605
NCI-H1944	0.922
NCI-H1975	0.874

same assay, conditions: first compound 2.53 µM

Cell Line	relative viability
NCI-H322M	0.355
LCLC-97TM1	0.134
NCI-H2009	0.68
A-427	0.951
NCI-H441	0.323
NCI-H1734	0.384
NCI-H460	0.306
NCI-H2347	0.571
SK-LU-1	0.886
NCI-H1395	0.436
201T	0.808
NCI-H1915	1.03
HCC-827	0.861
LXF-289	0.806
NCI-H23	0.338
NCI-H647	0.7

Cell Line	relative viability
CAL-12T	0.273
NCI-H1651	0.63
EPLC-272H	0.667
NCI-H2228	0.469
NCI-H1792	0.319
NCI-H1355	0.526
NCI-H3122	0.85
NCI-H1437	0.574
NCI-H1755	0.497
NCI-H2023	0.199
HCC-15	0.812
PC-14	0.675
EKVX	0.362
LC-2-ad	0.318
NCI-H1944	0.688
NCI-H1975	0.739

same assay, conditions: first compound 8 µM

Cell Line	relative viability
NCI-H322M	0.651
LCLC-97TM1	0.169
NCI-H2009	0.795
A-427	1.1
NCI-H441	0.531
NCI-H661	0.37
NCI-H1734	0.554
NCI-H460	0.206
NCI-H2347	0.84
SK-LU-1	0.912
NCI-H1395	0.732
201T	0.867
NCI-H1915	1.1
HCC-827	0.775
LXF-289	0.781
NCI-H23	0.57
NCI-H647	0.659

Cell Line	relative viability
CAL-12T	0.445
NCI-H1651	0.591
EPLC-272H	0.537
NCI-H2228	0.428
NCI-H1792	0.271
NCI-H1355	0.536
NCI-H3122	0.816
NCI-H1437	0.657
NCI-H1755	0.467
NCI-H2023	0.234
HCC-15	0.922
NCI-H1793	0.46
PC-14	0.736
EKVX	0.544
LC-2-ad	0.511
NCI-H1944	0.622
NCI-H1975	0.592

Reference: the supplement of paper PMC10307832
